This note sets out measurements from patent publication US4395417A, “Antihyperlipidemic compositions” (Research Corporation, priority 1980, dated 1983).

The test system of one series is serum cholesterol. Briefly: Serum cholesterol of male CF1 mice (Liebermann-Burchard reaction). It is filed as in vivo. The conditions noted are these: Mus musculus, ip. How it is done: (§1) For hypolipidemic activity, the compounds were tested at 20 mg/kg/day administered I.P. to male CF1 mice (~30 g). On days 9 and 16 blood was collected by tail-vein bleeding. Serum cholesterol was determined by the Liebermann-Burchard reaction. Serum triglyceride levels were determined using the Hycel commercial kits on a separate group of mice, which were bled on day 14.

Another series concerns serum triglyceride. The series can be described thus: Serum triglyceride levels of male mice (Hycel commercial kits). It counts as in vivo, male CF1 mice. Conditions: Mus musculus, ip, 336 h. How it is done: as §1
A further series deals with T1, Acetyl-CoA Synthetase (Mus musculus, UniProt Q9QXG4).
T1 construct: gm wet tissue/30 min; from tissue
T1 sequence (Q9QXG4 whole entry): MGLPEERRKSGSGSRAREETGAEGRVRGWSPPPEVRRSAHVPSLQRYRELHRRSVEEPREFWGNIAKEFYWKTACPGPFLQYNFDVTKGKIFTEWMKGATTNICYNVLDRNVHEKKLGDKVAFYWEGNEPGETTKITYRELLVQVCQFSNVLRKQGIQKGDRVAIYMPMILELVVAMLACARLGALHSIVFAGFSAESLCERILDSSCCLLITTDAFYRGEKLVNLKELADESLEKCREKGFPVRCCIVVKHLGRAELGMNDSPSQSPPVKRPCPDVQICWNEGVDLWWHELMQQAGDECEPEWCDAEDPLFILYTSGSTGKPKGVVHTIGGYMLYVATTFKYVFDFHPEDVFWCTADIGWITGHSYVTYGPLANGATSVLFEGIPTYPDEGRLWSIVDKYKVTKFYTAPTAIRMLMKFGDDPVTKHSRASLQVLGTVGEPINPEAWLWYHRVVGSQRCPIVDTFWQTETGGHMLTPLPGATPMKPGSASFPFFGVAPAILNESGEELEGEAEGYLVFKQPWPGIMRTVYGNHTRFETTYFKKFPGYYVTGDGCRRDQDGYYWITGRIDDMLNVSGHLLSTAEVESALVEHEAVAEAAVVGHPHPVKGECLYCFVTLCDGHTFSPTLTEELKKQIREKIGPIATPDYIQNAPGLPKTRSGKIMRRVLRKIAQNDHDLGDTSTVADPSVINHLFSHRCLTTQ
The series can be described thus: In vitro acetyl coenzyme A synthetase activity (method of Goodridge). Conditions: for Acetyl-CoA Synthetase: Table 2, N = 6, x ± S.D., control 28.5 mg acetyl CoA formed/gm wet tissue/30 min.; for in vitro AcCoA synthetase: Table 3, N = 6, control 10.8 mg/g wet tissue. It is filed as biochemical, mice.

Another series has as its target T2, Citrate Lyase (Mus musculus, UniProt Q91V92).
T2 construct: 30.5 mg of citrate hydrolyzed/gm wet tissue/30 min; from tissue
T2 sequence (Q91V92 1-1091): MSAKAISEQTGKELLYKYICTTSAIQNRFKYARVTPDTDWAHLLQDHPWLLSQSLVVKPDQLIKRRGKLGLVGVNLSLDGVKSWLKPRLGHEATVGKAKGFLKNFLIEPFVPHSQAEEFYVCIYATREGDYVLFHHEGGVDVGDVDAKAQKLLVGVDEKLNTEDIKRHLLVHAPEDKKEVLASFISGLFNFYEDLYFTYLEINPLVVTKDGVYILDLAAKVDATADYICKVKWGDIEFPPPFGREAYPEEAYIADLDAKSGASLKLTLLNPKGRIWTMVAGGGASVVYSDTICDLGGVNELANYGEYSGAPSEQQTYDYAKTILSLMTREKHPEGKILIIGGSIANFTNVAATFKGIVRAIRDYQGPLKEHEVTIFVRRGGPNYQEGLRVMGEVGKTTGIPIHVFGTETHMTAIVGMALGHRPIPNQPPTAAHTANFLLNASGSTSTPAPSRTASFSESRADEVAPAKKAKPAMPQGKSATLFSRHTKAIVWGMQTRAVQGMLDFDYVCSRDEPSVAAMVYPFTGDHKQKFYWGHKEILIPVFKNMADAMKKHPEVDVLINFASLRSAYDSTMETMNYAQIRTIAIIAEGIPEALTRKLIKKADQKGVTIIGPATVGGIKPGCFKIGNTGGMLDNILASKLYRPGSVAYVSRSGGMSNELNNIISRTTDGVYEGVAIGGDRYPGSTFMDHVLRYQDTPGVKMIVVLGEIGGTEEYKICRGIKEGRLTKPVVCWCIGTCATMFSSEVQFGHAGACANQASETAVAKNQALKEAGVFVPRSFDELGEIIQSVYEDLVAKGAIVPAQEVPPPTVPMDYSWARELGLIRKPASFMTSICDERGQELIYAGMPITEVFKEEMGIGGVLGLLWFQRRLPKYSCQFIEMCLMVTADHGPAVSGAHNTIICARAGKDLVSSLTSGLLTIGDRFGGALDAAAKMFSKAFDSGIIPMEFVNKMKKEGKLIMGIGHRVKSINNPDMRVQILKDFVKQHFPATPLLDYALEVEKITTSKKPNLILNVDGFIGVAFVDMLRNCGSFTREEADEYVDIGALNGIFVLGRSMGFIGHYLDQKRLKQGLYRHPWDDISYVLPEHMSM
Briefly: In vitro effect on citrate lyase. It is filed as biochemical. The conditions noted are these: Table 2, N = 6, x ± S.D., control 30.5 mg of citrate hydrolyzed/gm wet tissue/30 min.

A further series deals with T3, Acetyl-CoA Carboxylase (Mus musculus, UniProt Q5SWU9).
T3 construct: 32,010 dpm/gm wet tissue/30 min; from tissue
Briefly: In vitro acetyl coenzyme A carboxylase activity (method of Greenspan and Lowenstein). It counts as biochemical. Conditions: Table 2, N = 6, x ± S.D., control 32,010 dpm/gm wet tissue/30 min.

The next series has as its target T4, Fatty Acid Synthetase (Mus musculus, UniProt P19096).
T4 construct: gm wet tissue/30 min; from tissue
Briefly: In vitro effect on fatty acid synthetase. The conditions noted are these: Table 2, N = 6, x ± S.D. It is filed as biochemical.

Series [1] is described as follows: Acute toxicity (LD50) in mice. It is filed as in vivo. Conditions: mouse, in vivo. An excerpt:
(§2) They also are non-toxic. […] Moreover, there is no evidence that the weight of any of the major organs is altered as a result of treatment with compounds used in the invention.

Another series deals with mice. Briefly: Acute toxicity (LD50) in mice. It counts as in vivo. The conditions noted are these: 2 g/kg.
Description: as §2

Series [2] in a line: Size of vas deferens, vesicular or testes after 16 day treatment in mice. It counts as in vivo. The conditions noted are these: 16 day treatment at 10 (mg/kg)/day.
For series [3], the system named is ovariectomized immature females. The series can be described thus: Uterotropic effects in ovariectomized immature females. It counts as in vivo, mice. The conditions noted are these: 20 mg/kg.
Series [4] in a line: Hypertrophy of the adrenal. Further details: species or system mice. The conditions noted are these: mouse, in vivo.
Setting [5] is: 216 h, Table 1, 20 mg/kg/day I.P., male CF1 mice, N = 6, 9th day, control value 118 mg %, read-out: Serum Cholesterol, 9th day.
[6] abbreviates: 384 h, Table 1, 20 mg/kg/day I.P., male CF1 mice, N = 6, 16th day, control value 122 mg %, read-out: Serum Cholesterol, 16th day.
Setting [7] is: Table 1, 20 mg/kg/day I.P., male mice, N = 6, 14th day, control value 137 mg %, read-out: Serum Triglyceride, 14th day.
Setting [8] is: 216 h, Table 3, mice, N = 6, 9th day, control 115 mg %, read-out: serum cholesterol, 9th day.
[9] abbreviates: 384 h, Table 3, mice, N = 6, 16th day, control 118 mg %, read-out: serum cholesterol, 16th day.
Setting [10] is: Table 3, mice, N = 6, control 138 mg %, read-out: serum triglycerides.

Where two headings read alike, the source gives them in different places. Some results are limits rather than exact numbers.

T4 sequence (P19096 whole entry): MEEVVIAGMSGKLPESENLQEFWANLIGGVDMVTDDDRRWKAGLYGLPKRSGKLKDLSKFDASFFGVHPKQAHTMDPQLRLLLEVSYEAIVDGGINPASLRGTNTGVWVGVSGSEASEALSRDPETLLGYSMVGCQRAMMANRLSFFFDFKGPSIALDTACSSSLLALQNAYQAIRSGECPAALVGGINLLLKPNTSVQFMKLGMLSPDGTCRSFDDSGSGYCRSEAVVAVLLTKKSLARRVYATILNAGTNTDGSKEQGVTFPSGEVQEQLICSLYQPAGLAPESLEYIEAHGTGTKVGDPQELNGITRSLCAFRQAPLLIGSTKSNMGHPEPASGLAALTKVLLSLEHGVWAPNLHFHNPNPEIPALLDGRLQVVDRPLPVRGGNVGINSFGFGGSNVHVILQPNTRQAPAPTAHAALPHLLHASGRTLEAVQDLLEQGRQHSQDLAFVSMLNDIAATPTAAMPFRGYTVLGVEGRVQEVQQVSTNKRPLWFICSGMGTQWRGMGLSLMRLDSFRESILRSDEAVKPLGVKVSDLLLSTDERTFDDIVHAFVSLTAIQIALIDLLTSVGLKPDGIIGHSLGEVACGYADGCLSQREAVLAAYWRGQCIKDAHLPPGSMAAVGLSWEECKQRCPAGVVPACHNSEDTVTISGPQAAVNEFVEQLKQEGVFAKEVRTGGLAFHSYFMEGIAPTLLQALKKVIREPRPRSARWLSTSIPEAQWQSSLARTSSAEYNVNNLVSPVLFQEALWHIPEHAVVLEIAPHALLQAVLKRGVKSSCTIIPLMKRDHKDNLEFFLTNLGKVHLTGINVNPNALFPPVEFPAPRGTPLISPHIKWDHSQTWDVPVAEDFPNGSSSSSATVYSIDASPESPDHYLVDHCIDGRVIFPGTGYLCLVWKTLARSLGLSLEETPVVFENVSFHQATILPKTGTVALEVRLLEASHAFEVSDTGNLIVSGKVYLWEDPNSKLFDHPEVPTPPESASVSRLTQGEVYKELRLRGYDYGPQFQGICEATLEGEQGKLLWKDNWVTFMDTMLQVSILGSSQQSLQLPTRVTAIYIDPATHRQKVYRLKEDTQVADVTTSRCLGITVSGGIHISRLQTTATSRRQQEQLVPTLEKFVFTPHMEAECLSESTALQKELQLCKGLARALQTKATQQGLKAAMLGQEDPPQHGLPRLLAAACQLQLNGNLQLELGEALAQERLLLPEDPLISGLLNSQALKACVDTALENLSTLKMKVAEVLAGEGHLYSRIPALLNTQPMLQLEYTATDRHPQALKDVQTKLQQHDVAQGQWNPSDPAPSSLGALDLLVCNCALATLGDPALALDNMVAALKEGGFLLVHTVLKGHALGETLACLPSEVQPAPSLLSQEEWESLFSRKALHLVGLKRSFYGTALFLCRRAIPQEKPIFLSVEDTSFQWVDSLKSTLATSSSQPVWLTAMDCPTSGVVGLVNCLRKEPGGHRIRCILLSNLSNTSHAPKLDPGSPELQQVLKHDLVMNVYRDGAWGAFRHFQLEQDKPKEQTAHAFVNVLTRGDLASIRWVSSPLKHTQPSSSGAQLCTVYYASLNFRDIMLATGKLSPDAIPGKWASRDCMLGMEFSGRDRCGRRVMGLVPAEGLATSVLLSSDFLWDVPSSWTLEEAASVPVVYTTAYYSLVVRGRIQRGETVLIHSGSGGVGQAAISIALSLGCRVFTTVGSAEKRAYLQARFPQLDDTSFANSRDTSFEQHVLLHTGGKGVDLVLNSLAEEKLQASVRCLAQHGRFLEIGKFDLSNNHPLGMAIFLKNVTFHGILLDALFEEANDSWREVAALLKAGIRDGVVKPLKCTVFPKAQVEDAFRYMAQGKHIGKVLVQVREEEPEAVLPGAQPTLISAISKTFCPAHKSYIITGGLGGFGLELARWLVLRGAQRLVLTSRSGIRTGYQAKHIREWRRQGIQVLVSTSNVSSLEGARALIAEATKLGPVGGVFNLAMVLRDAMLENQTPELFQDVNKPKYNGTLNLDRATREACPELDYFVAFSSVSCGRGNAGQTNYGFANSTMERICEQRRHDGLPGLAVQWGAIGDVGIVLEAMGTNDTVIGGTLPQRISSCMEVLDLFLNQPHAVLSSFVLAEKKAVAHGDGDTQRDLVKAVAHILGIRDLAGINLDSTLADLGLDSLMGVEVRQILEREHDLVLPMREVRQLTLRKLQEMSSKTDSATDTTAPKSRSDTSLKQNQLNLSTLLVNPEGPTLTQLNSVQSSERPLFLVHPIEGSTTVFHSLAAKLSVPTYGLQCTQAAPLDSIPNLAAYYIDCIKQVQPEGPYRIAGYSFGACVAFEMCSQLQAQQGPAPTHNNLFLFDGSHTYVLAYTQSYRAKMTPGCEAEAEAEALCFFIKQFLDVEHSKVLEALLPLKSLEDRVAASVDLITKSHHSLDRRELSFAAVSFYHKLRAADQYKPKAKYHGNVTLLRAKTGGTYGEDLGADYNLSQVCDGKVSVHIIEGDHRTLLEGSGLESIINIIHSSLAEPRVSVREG

`CC(=O)CCN1C(=O)c2ccccc2S1(=O)=O` [1-N--(o-Benzosulfimido)butan-3-one]: the response vs control in vivo at 20 mg/kg/day in the series with serum cholesterol (setting [5]) worked out at 60 ± 8%; in the series with serum cholesterol (setting [6]) it was 62 ± 6%; in the series on serum triglyceride (setting [7]) it was 51 ± 7%. At Acetyl-CoA Synthetase, the “Acetyl-CoA Synthetase” value turned out to be 74 ± 9 % Control. The “Citrate Lyase” value on Citrate Lyase is 47 ± 8 % Control. The “Acetyl-CoA Carboxylase” value on Acetyl-CoA Carboxylase is listed as 12 ± 3 % Control. Further, the “Fatty Acid Synthetase” value on Fatty Acid Synthetase came to 104 ± 7 % Control.

As to `CC(=O)CCN1C(=O)c2ccccc2C1=O` [1-N--Phthalimidobutan-3-one], the response vs control in vivo at 20 mg/kg/day in the series on serum cholesterol (setting [5]) was found to be 67 ± 11%; in the series on serum cholesterol (setting [8]), 67 ± 11%; in the series with serum cholesterol (setting [6]), 63 ± 7%; in the series with serum cholesterol (setting [9]), 63 ± 7%; in the series on serum triglyceride (setting [7]) it was 58 ± 7%; in the series on serum triglyceride (setting [10]), 58 ± 7%. For the same molecule, the “Acetyl-CoA Synthetase” value at Acetyl-CoA Synthetase was determined as 53 ± 12 % Control. For the same molecule, the “in vitro AcCoA synthetase” value at Acetyl-CoA Synthetase amounted to 53 ± 12 % Control. Besides, at Citrate Lyase, the “Citrate Lyase” value came out at 34 ± 4 % Control. Also, at Acetyl-CoA Carboxylase, the “Acetyl-CoA Carboxylase” value was determined as 17 ± 3 % Control. For the same molecule, the “Fatty Acid Synthetase” value on Fatty Acid Synthetase turned out to be 109 ± 7 % Control.

As usually defined, the LD50 is the dose expected to kill half of the subjects tested. Low values mean a more toxic substance, high ones a less toxic substance. As for `CC(=O)CN1C(=O)c2ccccc2C1=O` [1-N--Phthalimidopropan-2-one], the response vs control in vivo at 20 mg/kg/day with serum cholesterol (setting [5]) was 80 ± 16%; with serum cholesterol (setting [8]) it was 80 ± 16%; in the series with serum cholesterol (setting [6]) it was 67 ± 12%; in the series with serum cholesterol (setting [9]), 67 ± 12%; in the series on serum triglyceride (setting [7]) it was 48 ± 10%; with serum triglyceride (setting [10]), 48 ± 10%. Besides, the “Acetyl-CoA Synthetase” value on Acetyl-CoA Synthetase is 58 ± 7 % Control. Also, the “in vitro AcCoA synthetase” value on Acetyl-CoA Synthetase was found to be 58 ± 7 % Control. In addition, at Citrate Lyase, the “Citrate Lyase” value is listed as 76 ± 4 % Control. Besides, at Acetyl-CoA Carboxylase, the “Acetyl-CoA Carboxylase” value was found to be 24 ± 4 % Control. Besides, the “Fatty Acid Synthetase” value on Fatty Acid Synthetase came out at 91 ± 9 % Control. The LD50 in [1] is more than 2000 mg/kg. Moreover, the deaths entry in the series with mice is “no deaths were observed at this concentration”. The “decrease in the size of the vas deferens, vesicular or testes” value in series [2] is recorded as “no decrease in the size of the vas deferens, vesicular or testes”. Moreover, the uterotropic effects entry in series [3] is “nor did the drug demonstrate uterotropic effects”. In addition, in series [4], the “hypertrophy of the adrenal” value was “no hypertophy of the adrenal”.

For the molecule `CC(=O)CCN1C(=O)CCC1=O` [1-N--Succinimidobutan-3-one], the response vs control in vivo at 20 mg/kg/day with serum cholesterol (setting [5]) came to 90 ± 9%; in the series on serum cholesterol (setting [6]) it was 88 ± 7%; in the series on serum triglyceride (setting [7]) it was 79 ± 15%. For the same molecule, the “Acetyl-CoA Synthetase” value on Acetyl-CoA Synthetase is given as 58 ± 6 % Control. Besides, on Citrate Lyase, the “Citrate Lyase” value stood at 38 ± 7 % Control. The “Acetyl-CoA Carboxylase” value on Acetyl-CoA Carboxylase was 100 ± 5 % Control. The “Fatty Acid Synthetase” value on Fatty Acid Synthetase is listed as 81 ± 7 % Control.

With `O=C(O)CCN1C(=O)c2ccccc2C1=O` [3-N--Phthalimidopropionic Acid], the response vs control in vivo at 20 mg/kg/day with serum cholesterol (setting [5]) was 74 ± 10%; in the series on serum cholesterol (setting [8]) it was 74 ± 7%; with serum cholesterol (setting [6]) it was 55 ± 12%; in the series on serum cholesterol (setting [9]), 55 ± 11%; with serum triglyceride (setting [7]), 58 ± 9%; in the series with serum triglyceride (setting [10]) it was 58 ± 10%. In addition, at Acetyl-CoA Synthetase, the “Acetyl-CoA Synthetase” value stood at 57 ± 10 % Control. Moreover, the “in vitro AcCoA synthetase” value on Acetyl-CoA Synthetase was found to be 57 ± 7 % Control. The “Citrate Lyase” value at Citrate Lyase came out at 87 ± 6 % Control. Further, on Acetyl-CoA Carboxylase, the “Acetyl-CoA Carboxylase” value was determined as 18 ± 4 % Control. Further, the “Fatty Acid Synthetase” value at Fatty Acid Synthetase is given as 107 ± 7 % Control.

`CCCCN1C(=O)c2ccccc2C1=O` [N--n-Butylphthalimide]: the response vs control in vivo at 20 mg/kg/day worked out at 72 ± 11% in the series on serum cholesterol (setting [5]); 72 ± 10% with serum cholesterol (setting [8]); 54 ± 6% in the series with serum cholesterol (setting [6]); 54 ± 6% in the series with serum cholesterol (setting [9]); 82 ± 10% in the series on serum triglyceride (setting [7]); 82 ± 16% with serum triglyceride (setting [10]). In addition, the “Acetyl-CoA Synthetase” value at Acetyl-CoA Synthetase is 44 ± 11 % Control. For the same molecule, at Acetyl-CoA Synthetase, the “in vitro AcCoA synthetase” value stood at 82 ± 7 % Control. In addition, on Citrate Lyase, the “Citrate Lyase” value came out at 72 ± 9 % Control. Moreover, the “Acetyl-CoA Carboxylase” value on Acetyl-CoA Carboxylase is reported as 76 ± 3 % Control. The “Fatty Acid Synthetase” value on Fatty Acid Synthetase is reported as 75 ± 10 % Control.

Take `O=C1NC(=O)c2ccccc21` [Phthalimide]: the response vs control in vivo at 20 mg/kg/day with serum cholesterol (setting [5]) came to 63 ± 13%; with serum cholesterol (setting [6]), 57 ± 7%; in the series with serum triglyceride (setting [7]), 44 ± 8%. The “Acetyl-CoA Synthetase” value at Acetyl-CoA Synthetase turned out to be 70 ± 8 % Control. Moreover, the “Citrate Lyase” value at Citrate Lyase is listed as 42 ± 6 % Control. The “Acetyl-CoA Carboxylase” value on Acetyl-CoA Carboxylase came out at 8 ± 4 % Control. For the same molecule, the “Fatty Acid Synthetase” value on Fatty Acid Synthetase came out at 105 ± 8 % Control.

For the molecule `O=C1NS(=O)(=O)c2ccccc21` [Saccharin], the response vs control in vivo at 20 mg/kg/day in the series on serum cholesterol (setting [5]) stood at 68 ± 11%; with serum cholesterol (setting [6]), 67 ± 10%; in the series with serum triglyceride (setting [7]) it was 51 ± 16%. Besides, on Acetyl-CoA Synthetase, the “Acetyl-CoA Synthetase” value is 61 ± 7 % Control. For the same molecule, at Citrate Lyase, the “Citrate Lyase” value came to 65 ± 6 % Control. In addition, the “Acetyl-CoA Carboxylase” value at Acetyl-CoA Carboxylase is 9 ± 2 % Control. Further, on Fatty Acid Synthetase, the “Fatty Acid Synthetase” value was 93 ± 5 % Control.

Turning to `O=C1CCC(=O)N1` [Succinimide], the response vs control in vivo at 20 mg/kg/day amounted to 78 ± 9% in the series with serum cholesterol (setting [5]), 73 ± 12% with serum cholesterol (setting [6]) and 68 ± 7% in the series on serum triglyceride (setting [7]). Moreover, on Acetyl-CoA Synthetase, the “Acetyl-CoA Synthetase” value turned out to be 74 ± 6 % Control. In addition, the “Citrate Lyase” value on Citrate Lyase was 38 ± 3 % Control. Further, on Acetyl-CoA Carboxylase, the “Acetyl-CoA Carboxylase” value turned out to be 87 ± 7 % Control. In addition, the “Fatty Acid Synthetase” value at Fatty Acid Synthetase came to 98 ± 9 % Control.
